Molecular target: Human Dopamine Transporter (DAT) (Homo sapiens, UniProt Q01959)
Experiment: Human Dopamine Transporter (DAT) Binding (Antagonist Radioligand) Assay
Conditions: for level of inhibition in the dopamine transporter inhibitory assay: statement in words in the description
Procedure: Human Dopamine Transporter (DAT) Binding (Antagonist Radioligand) Assay
Nonspecific binding is determined in the presence of 10 μM BTCP. Following incubation, the samples are filtered rapidly under vacuum through glass fiber filters (GF/B, Packard) presoaked with 0.3% PEI and rinsed several times with ice-cold 50 mM Tris-HCl using a 96-sample cell harvester (Unifilter, Packard). The filters are dried then counted for radioactivity in a scintillation counter (Topcount, Packard) using a scintillation cocktail (Microscint 0, Packard). The results are expressed as a percent inhibition of the control radioligand specific binding.

Sequence of Human Dopamine Transporter (DAT) (Q01959 whole entry): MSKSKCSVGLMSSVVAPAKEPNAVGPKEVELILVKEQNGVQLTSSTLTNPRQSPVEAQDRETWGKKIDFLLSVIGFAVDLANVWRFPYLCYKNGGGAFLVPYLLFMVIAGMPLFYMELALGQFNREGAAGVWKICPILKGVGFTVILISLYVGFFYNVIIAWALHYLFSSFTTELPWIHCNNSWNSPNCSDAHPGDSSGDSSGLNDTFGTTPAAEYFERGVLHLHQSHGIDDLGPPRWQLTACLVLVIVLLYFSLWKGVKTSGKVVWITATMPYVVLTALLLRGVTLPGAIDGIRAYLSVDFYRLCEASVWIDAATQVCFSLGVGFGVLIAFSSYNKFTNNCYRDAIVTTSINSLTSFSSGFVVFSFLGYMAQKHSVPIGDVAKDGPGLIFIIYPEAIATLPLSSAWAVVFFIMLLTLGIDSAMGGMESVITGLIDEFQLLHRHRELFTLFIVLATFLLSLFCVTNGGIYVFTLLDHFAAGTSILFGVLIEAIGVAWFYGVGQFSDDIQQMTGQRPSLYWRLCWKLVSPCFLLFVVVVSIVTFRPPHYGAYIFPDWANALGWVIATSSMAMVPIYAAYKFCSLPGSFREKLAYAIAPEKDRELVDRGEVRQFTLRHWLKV

level of inhibition in the dopamine transporter inhibitory assay | % of Control Specific Binding (mean of two tests) ([3H]BTCP 4 nM radioligand, mean of two tests) | Structure (SMILES)
extremely high level of inhibition | 4.6% | OC[C@@H](O)[C@@H](/C=C/c1ccc(O)cc1)c1ccc(O)cc1 [Agatharesinol, (2S,3S,4E)-3,5-bis(4-hydroxyphenyl)pent-4-ene-1,2-diol]
extremely high level of inhibition |  | OC[C@@H](O)[C@@H](/C=C/c1ccc(O)cc1)c1ccc(O)c(O)c1 [Sequirin C, 4-[(1S,2E)-1-[(1S)-1,2-dihydroxyethyl]-3-(4-hydroxyphenyl)prop-2-en-1-yl]benzene-1,2-diol]

Structure (SMILES) | level of inhibition in the dopamine transporter inhibitory assay | % of Control Specific Binding (mean of two tests) ([3H]BTCP 4 nM radioligand, mean of two tests)
CC(C)=CCc1c(C2CCc3ccc(O)cc3O2)ccc(O)c1O (stereo in doubt) [Kazinol U, 4-[(2S)-7-hydroxy-3,4-dihydro-2H-chromen-2-yl]-3-(3-methylbut-2-enyl)benzene-1,2-diol] | high level of inhibition | 
